Data published in US20170217946A1, “AMINO-SUBSTITUTED ISOXAZOLES” (Bayer Pharma Aktiengesellschaft, priority 2014, published 2017).

Molecular target: T1, CDK2/CycE (Homo sapiens, UniProt P24941)
T1 construct: GST; purchased ProQinase GmbH (Freiburg, Germany); host or cells: insect cells (Sf9)
Assay: CDK2/CycE kinase assay (TR-FRET)
Type: biochemical
Details: 10 μM ATP
From the text: CDK2/CycE-inhibitory activity of compounds of the present invention was quantified employing the CDK2/CycE TR-FRET assay as described in the following paragraphs.
Recombinant fusion proteins of GST and human CDK2 and of GST and human CycE, expressed in insect cells (Sf9) and purified by Glutathion-Sepharose affinity chromatography, were purchased from ProQinase GmbH (Freiburg, Germany). As substrate for the kinase reaction biotinylated peptide biotin-Ttds-YISPLKSPYKISEG (C-terminus in amid form) was used which can be purchased e.g. form the company JERINI peptide technologies (Berlin, Germany).
For the assay 50 nl of a 100 fold concentrated solution of the test compound in DMSO was pipetted into a black low volume 384 well microtiter plate (Greiner Bio-One, Frickenhausen, Germany), 2 μl of a solution of CDK2/CycE in aqueous assay buffer [50 mM Tris/HCl pH 8.0, 10 mM MgCl2, 1.0 mM dithiothreitol, 0.1 mM sodium ortho-vanadate, 0.01% (v/v) Nonidet-P40 (Sigma)] were added and the mixture was incubated for 15 min at 22° C. to allow pre-binding of the test compounds to the enzyme before the start of the kinase reaction. Then the kinase reaction was started by the addition of 3 μl of a solution of adenosine-tri-phosphate (ATP, 16.7 μM=>final conc. in the 5 μl assay volume is 10 μM) and substrate (1.25 μM=>final conc. in the 5 μl assay volume is 0.75 μM) in assay buffer and the resulting mixture was incubated for a reaction time of 25 min at 22° C. […]
The resulting mixture was incubated 1 h at 22° C. to allow the formation of complex between the phosphorylated biotinylated peptide and the detection reagents. Subsequently the amount of phosphorylated substrate was evaluated by measurement of the resonance energy transfer from the Eu-chelate to the streptavidine-XL. Therefore, the fluorescence emissions at 620 nm and 665 nm after excitation at 350 nm was measured in a TR-FRET reader, e.g. a Rubystar (BMG Labtechnologies, Offenburg, Germany) or a Viewlux (Perkin-Elmer). […]

IC50	SMILES
> 20 µM	Cc1noc(Nc2cnc(C(=O)NC3CCN(CC(F)F)CC3)cn2)c1C(=O)Nc1ccc(F)c(F)c1 [Example 1b, N-[1-(2,2-Difluoroethyl)piperidin-4-yl]-5-({4-[(3,4-difluorophenyl)carbamoyl]-3-methyl-1,2-oxazol-5-yl}amino)pyrazine-2-carboxamide]
> 20 µM	Cc1noc(Nc2cnc(C(F)(F)F)cn2)c1C(=O)Nc1ccc(F)c(F)c1 [Example 1c, N-(3,4-Difluorophenyl)-3-methyl-5-{[5-(trifluoromethyl)pyrazin-2-yl]amino}-1,2-oxazole-4-carboxamide]
> 20 µM	Cc1noc(Nc2cnc(C(F)(F)F)cn2)c1C(=O)Nc1ccc(OC2CCN(CCC(F)(F)F)CC2)nc1 [Example 1a, 3-Methyl-5-{[5-(trifluoromethyl)pyrazin-2-yl]amino}-N-(6-{[1-(3,3,3-trifluoropropyl)-piperidin-4-yl]oxy}pyridin-3-yl)-1,2-oxazole-4-carboxamide]
